Source: ChEMBL document CHEMBL5126637, “Discovery of Phenolic Matrix Metalloproteinase Inhibitors by Peptide Microarray for Osteosarcoma Treatment” (J Nat Prod, 2022)
Active and inactive are the calls of the source. The calls are words filed in the database; no cut-off is given here.

How the values were obtained:
[1] = molecular target: T1, Interstitial collagenase (Homo sapiens) (UniProt P03956); test: Inhibition of MMP1 in human U2OS cells at 1 umol/L by peptide microarray-based fluorescence assay; type: cell-based; conditions: dose 1.0 µmol/L
T1 sequence (whole entry): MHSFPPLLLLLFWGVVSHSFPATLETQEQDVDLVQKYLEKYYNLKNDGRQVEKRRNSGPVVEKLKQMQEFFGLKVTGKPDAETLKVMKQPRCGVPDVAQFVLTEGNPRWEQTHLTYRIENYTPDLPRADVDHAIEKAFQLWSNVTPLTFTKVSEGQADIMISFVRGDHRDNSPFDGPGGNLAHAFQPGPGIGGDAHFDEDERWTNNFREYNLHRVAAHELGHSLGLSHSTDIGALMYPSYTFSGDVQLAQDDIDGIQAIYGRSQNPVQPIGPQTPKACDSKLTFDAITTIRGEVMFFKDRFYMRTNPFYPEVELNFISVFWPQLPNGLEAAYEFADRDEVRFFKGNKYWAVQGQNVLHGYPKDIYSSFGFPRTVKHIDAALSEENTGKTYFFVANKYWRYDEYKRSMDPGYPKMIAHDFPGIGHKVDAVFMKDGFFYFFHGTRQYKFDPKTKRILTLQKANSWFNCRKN

Stromelysin-1 [2] = molecular target: T2, Stromelysin-1 (Homo sapiens, UniProt P08254); test: Inhibition of MMP3 in human U2OS cells at 5 umol/L by peptide microarray-based fluorescence assay; type: cell-based; conditions: dose 5.0 µmol/L
Target sequence in this assay (P08254 100-477 limits assumed): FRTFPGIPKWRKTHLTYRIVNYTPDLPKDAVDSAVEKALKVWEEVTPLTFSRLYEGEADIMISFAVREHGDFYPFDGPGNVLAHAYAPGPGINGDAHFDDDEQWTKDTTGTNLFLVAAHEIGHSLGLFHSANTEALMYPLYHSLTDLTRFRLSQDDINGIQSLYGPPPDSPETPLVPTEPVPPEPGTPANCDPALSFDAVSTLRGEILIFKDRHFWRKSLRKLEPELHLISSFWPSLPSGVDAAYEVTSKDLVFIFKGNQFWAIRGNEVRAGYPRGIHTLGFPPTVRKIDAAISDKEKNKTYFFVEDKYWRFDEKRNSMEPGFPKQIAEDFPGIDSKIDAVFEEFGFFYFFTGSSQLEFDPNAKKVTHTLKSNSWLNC

[3] = molecular target: T3, 72 kDa type IV collagenase (Homo sapiens, UniProt P08253); test: Inhibition of MMP2 in human U2OS cells at 5 umol/L by peptide microarray-based fluorescence assay; type: cell-based; conditions: dose 5.0 µmol/L
Target sequence in this assay (P08253 110-660 limits assumed): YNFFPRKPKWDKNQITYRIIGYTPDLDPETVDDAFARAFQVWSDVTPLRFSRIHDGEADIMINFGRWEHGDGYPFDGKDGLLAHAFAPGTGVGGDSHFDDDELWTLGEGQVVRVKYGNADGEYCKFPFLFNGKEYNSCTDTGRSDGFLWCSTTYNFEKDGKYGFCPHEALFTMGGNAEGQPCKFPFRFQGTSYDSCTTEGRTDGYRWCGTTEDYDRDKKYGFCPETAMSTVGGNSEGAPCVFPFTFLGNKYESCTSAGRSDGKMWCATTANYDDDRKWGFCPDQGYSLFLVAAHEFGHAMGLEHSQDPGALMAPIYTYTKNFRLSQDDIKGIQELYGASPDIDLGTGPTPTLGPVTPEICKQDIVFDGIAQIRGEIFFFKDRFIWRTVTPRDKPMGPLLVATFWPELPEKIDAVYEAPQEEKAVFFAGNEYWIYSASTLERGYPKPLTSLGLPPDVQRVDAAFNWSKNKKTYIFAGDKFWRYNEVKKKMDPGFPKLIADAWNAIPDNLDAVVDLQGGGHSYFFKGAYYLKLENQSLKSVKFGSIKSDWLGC

[4] = Toxicity in Kunming mouse assessed as effect on blood components measured after 14 days; conditions: in vivo, 336 h, time 14 day
[5] = Toxicity in human HL7702 cells assessed as cell viability at 2.5 umol/L incubated for 24 hrs by MTT assay relative to control; type: cell-based, L02; conditions: dose 2.5 µmol/L, read-out: Activity
U2OS [6] = test: Antitumor activity against human U2OS cells xenografted in NOD/SCID mouse assessed as time duration with 100% survival with at 18 ug, iv dosed once every 2 days for 6 days successively relative to control; type: functional; conditions: dose 18 µg, time 6 day
U2OS [7] = test: Antitumor activity against human U2OS cells xenografted in NOD/SCID mouse assessed as inhibition of tumor growth at 18 ug, iv dosed once every 2 days for 6 days successively relative to control; type: functional; conditions: dose 18 µg, time 6 day
[8] = Toxicity in human MCF7 cells assessed as cell viability at 2.5 umol/L incubated for 24 hrs by MTT assay relative to control; type: cell-based; conditions: dose 2.5 µmol/L, read-out: Activity
[9] = Toxicity in Kunming mouse assessed as effect on body weight changes measured after 14 days; conditions: in vivo, 336 h, time 14 day
Matrilysin = molecular target: T4, Matrilysin (Homo sapiens, UniProt P09237); test: Inhibition of MMP7 in human U2OS cells by peptide microarray-based fluorescence assay; type: cell-based
T4 sequence (P09237 whole entry): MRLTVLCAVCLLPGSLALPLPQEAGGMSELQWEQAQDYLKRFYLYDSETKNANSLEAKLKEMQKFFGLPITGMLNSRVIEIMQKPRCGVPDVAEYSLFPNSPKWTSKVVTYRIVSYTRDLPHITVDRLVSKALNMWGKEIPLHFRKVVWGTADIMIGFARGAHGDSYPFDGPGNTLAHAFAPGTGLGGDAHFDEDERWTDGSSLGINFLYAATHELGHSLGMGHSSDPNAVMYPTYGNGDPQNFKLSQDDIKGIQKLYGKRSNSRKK

[10] = Toxicity in human U2OS cells assessed as cell viability at 2.5 umol/L incubated for 24 hrs by MTT assay relative to control; type: cell-based; conditions: dose 2.5 µmol/L, read-out: Activity
[11] = molecular target: T3, 72 kDa type IV collagenase; test: Inhibition of MMP2 in human U2OS cells at 1 umol/L by peptide microarray-based fluorescence assay; type: cell-based; conditions: dose 1.0 µmol/L
Target sequence in this assay (P08253 110-660 limits assumed): as the sequence (P08253 110-660 limits assumed) above

[12] = molecular target: T5, Matrilysin (Homo sapiens) (UniProt P09237); test: Inhibition of MMP7 in human U2OS cells at 1 umol/L by peptide microarray-based fluorescence assay; type: cell-based; conditions: dose 1.0 µmol/L
T5 sequence (whole entry): T4 sequence (P09237 whole entry)

Interstitial collagenase = molecular target: T6, Interstitial collagenase (Homo sapiens, UniProt P03956); test: Inhibition of MMP1 in human U2OS cells by peptide microarray-based fluorescence assay; type: cell-based
T6 sequence (P03956 whole entry): T1 sequence (whole entry)

[13] = molecular target: T1, Interstitial collagenase (Homo sapiens); test: Inhibition of MMP1 in human U2OS cells at 5 umol/L by peptide microarray-based fluorescence assay; type: cell-based; conditions: dose 5.0 µmol/L
[14] = Toxicity in human MDA-MB-231 cells assessed as cell viability at 2.5 umol/L incubated for 24 hrs by MTT assay relative to control; type: cell-based; conditions: dose 2.5 µmol/L, read-out: Activity
[15] = molecular target: T5, Matrilysin (Homo sapiens); test: Inhibition of MMP7 in human U2OS cells at 5 umol/L by peptide microarray-based fluorescence assay; type: cell-based; conditions: dose 5.0 µmol/L
Stromelysin-1 [16] = molecular target: T2, Stromelysin-1; test: Inhibition of MMP3 in human U2OS cells by peptide microarray-based fluorescence assay; type: cell-based
Target sequence in this assay (P08254 whole entry): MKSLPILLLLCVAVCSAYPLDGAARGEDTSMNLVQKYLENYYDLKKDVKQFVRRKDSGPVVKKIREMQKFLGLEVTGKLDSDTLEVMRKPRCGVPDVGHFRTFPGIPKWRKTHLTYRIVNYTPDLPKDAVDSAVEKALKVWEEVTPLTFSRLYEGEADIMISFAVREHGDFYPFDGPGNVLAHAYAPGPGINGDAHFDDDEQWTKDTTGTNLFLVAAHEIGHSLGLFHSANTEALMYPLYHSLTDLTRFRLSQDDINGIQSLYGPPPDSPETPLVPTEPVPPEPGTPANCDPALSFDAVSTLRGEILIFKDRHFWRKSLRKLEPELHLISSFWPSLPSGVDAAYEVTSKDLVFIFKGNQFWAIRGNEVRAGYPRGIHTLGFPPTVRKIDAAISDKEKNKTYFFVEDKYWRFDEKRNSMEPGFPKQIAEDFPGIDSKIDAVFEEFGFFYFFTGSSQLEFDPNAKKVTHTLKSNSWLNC

Stromelysin-1 [17] = molecular target: T2, Stromelysin-1; test: Inhibition of MMP3 in human U2OS cells at 1 umol/L by peptide microarray-based fluorescence assay; type: cell-based; conditions: dose 1.0 µmol/L
Target sequence in this assay (P08254 100-477 limits assumed): as the sequence (P08254 100-477 limits assumed) above

[18] = Toxicity in Kunming mouse assessed as induction of adverse effect or tissue damage in major organs measured after 14 days; conditions: in vivo, 336 h, time 14 day
U2OS [19] = test: Antitumor activity against human U2OS cells xenografted in NOD/SCID mouse assessed as inhibition of growth of both primary and metastatic tumors at 18 ug, iv dosed once every 2 days for 6 days successively relative to control; type: functional, organism-based; conditions: dose 18.0 µg, time 6.0 day
U2OS [20] = test: Inhibition of cell migration of human U2OS cells at 2.5 umol/L incubated for 24 hrs by would healing assay; type: functional, cell-based; conditions: dose 2.5 µmol/L
[21] = molecular target: T7, Matrix metalloproteinase-9 (Homo sapiens, UniProt P14780); test: Inhibition of MMP9 in human U2OS cells at 5 umol/L by peptide microarray-based fluorescence assay; type: cell-based; conditions: dose 5.0 µmol/L
T7 sequence (P14780 whole entry): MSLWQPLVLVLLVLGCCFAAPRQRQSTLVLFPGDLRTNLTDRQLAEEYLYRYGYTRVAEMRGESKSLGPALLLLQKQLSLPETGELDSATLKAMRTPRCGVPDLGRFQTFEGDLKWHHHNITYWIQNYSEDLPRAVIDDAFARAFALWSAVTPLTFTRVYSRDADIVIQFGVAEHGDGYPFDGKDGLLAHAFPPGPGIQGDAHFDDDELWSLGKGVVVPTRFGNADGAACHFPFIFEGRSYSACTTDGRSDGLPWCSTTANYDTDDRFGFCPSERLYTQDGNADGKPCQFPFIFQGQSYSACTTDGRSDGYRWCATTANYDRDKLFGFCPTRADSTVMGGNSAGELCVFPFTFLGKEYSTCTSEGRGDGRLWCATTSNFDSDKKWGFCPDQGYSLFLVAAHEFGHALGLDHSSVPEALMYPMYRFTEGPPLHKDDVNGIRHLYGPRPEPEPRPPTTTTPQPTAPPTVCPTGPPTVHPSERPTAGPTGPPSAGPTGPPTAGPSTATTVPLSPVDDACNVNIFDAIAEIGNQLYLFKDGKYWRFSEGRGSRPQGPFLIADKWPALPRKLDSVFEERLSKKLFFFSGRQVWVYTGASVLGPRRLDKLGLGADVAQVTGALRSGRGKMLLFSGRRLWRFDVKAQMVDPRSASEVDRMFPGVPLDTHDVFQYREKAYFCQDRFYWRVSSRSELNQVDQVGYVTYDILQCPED

[22] = molecular target: T7, Matrix metalloproteinase-9; test: Inhibition of MMP9 in human U2OS cells at 1 umol/L by peptide microarray-based fluorescence assay; type: cell-based; conditions: dose 1.0 µmol/L
[23] = molecular target: T3, 72 kDa type IV collagenase; test: Inhibition of MMP2 in human U2OS cells by peptide microarray-based fluorescence assay; type: cell-based
Target sequence in this assay (P08253 whole entry): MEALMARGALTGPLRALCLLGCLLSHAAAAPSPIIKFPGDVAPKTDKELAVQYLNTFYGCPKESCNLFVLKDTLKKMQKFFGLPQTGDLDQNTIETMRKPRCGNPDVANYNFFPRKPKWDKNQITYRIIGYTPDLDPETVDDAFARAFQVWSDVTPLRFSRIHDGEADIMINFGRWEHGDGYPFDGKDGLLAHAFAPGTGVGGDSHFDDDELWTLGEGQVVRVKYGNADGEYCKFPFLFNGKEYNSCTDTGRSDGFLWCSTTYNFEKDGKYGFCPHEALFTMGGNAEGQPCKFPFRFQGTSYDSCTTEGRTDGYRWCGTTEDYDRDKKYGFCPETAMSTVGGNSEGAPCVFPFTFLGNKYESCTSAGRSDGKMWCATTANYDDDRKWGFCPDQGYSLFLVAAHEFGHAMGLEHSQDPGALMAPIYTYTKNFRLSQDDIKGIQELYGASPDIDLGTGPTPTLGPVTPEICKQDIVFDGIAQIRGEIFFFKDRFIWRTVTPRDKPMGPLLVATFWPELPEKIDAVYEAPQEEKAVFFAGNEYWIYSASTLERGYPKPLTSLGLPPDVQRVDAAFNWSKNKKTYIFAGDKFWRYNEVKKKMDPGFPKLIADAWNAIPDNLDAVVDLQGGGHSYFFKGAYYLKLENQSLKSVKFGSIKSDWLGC

Collagenase 3 [24] = molecular target: T8, Collagenase 3 (Homo sapiens, UniProt P45452); test: Inhibition of MMP13 in human U2OS cells by peptide microarray-based fluorescence assay; type: cell-based
U2OS [25] = test: Antitumor activity against human U2OS cells xenografted in NOD/SCID mouse assessed as inhibition of tumor growth at 100 mg/kg, po dosed once every 2 days for 2 weeks relative to control; type: functional; conditions: 1008 h, time 6 weeks, read-out: TGI
Collagenase 3 [26] = molecular target: T8, Collagenase 3; test: Inhibition of MMP13 in human U2OS cells at 5 umol/L by peptide microarray-based fluorescence assay; type: cell-based; conditions: dose 5.0 µmol/L
[27] = molecular target: T7, Matrix metalloproteinase-9; test: Inhibition of MMP9 in human U2OS cells by peptide microarray-based fluorescence assay; type: cell-based
Collagenase 3 [28] = molecular target: T8, Collagenase 3; test: Inhibition of MMP13 in human U2OS cells at 1 umol/L by peptide microarray-based fluorescence assay; type: cell-based; conditions: dose 1.0 µmol/L
[29] = Toxicity in human HEK293T cells assessed as cell viability at 2.5 umol/L incubated for 24 hrs by MTT assay relative to control; type: cell-based, HEK-293T; conditions: dose 2.5 µmol/L, read-out: Activity
U2OS [30] = test: Antitumor activity against human U2OS cells xenografted in NOD/SCID mouse assessed as inhibition of distant organ metastasis at 18 ug, iv dosed once every 2 days for 6 days successively relative to control; type: functional, organism-based; conditions: dose 18.0 µg, time 6.0 day
[31] = Toxicity in human HCT-116 cells assessed as cell viability at 2.5 umol/L incubated for 24 hrs by MTT assay relative to control; type: cell-based; conditions: dose 2.5 µmol/L, read-out: Activity
[32] = Toxicity in human NCM460 cells assessed as cell viability at 2.5 umol/L incubated for 24 hrs by MTT assay relative to control; type: cell-based; conditions: dose 2.5 µmol/L, read-out: Activity
U2OS [33] = test: Antitumor activity against human U2OS cells xenografted in NOD/SCID mouse assessed as inhibition of distant organ metastasis at 34 ug, iv dosed once every 2 days for 6 days successively relative to control; type: functional, organism-based; conditions: dose 34.0 µg, time 6.0 day
U2OS [34] = test: Antitumor activity against human U2OS cells xenografted in NOD/SCID mouse assessed as inhibition of tumor growth at 34 ug, iv dosed once every 2 days for 6 days successively relative to control; type: functional; conditions: dose 34 µg, time 6 day
U2OS [35] = test: Antitumor activity against human U2OS cells xenografted in NOD/SCID mouse assessed as time duration with 100% survival with at 34 ug, iv dosed once every 2 days for 6 days successively relative to control; type: functional; conditions: dose 34 µg, time 6 day
U2OS [36] = test: Antitumor activity against human U2OS cells xenografted in NOD/SCID mouse assessed as inhibition of growth of both primary and metastatic tumors at 34 ug, iv dosed once every 2 days for 6 days successively relative to control; type: functional, organism-based; conditions: dose 34.0 µg, time 6.0 day

| Compound | inhibition [1] | inhibition (Stromelysin-1 [2]) [%] | inhibition [3] [%] | Activity [4] | viability at 24 h, 2.5 µM [5] [%] | viability at 24 h, 2.5 µM [8] [%] | Activity [9] | viability at 24 h, 2.5 µM [10] [%] | inhibition [13] [%] | viability at 24 h, 2.5 µM [14] [%] | inhibition [15] [%] | Activity [18] | inhibition (U2OS [20]) | inhibition [21] [%] | IC50 (Collagenase 3 [24]) [nM] | inhibition (Collagenase 3 [26]) [%] | inhibition (Collagenase 3 [28]) | viability at 24 h, 2.5 µM [29] [%] | viability at 24 h, 2.5 µM [31] [%] | viability at 24 h, 2.5 µM [32] [%] | further results |
| --- | --- | --- | --- | --- | --- | --- | --- | --- | --- | --- | --- | --- | --- | --- | --- | --- | --- | --- | --- | --- | --- |
| O=C(/C=C/c1ccc(O)cc1)c1ccc(O)cc1O [ISOLIQUIRITIGENIN] | Active | > 50 | > 50 | Non-Toxic | > 90 | > 90 | Non-Toxic | > 90 | > 50 | > 90 | > 50 | Non-Toxic | Active | > 50 | 14 | > 50 | Active | > 90 | > 90 | > 90 | Survival (U2OS [6]): 70 days; TGI (U2OS [7]): 80%; IC50 (Matrilysin): 8 nM; inhibition [11]: Active; inhibition [12]: Active; IC50 (Interstitial collagenase): 16 nM; IC50 (Stromelysin-1 [16]): 81 nM; inhibition (Stromelysin-1 [17]): Active; inhibition (U2OS [19]): Active; inhibition [22]: Active; IC50 [23]: 10 nM; inhibition in vivo at 100 mg/kg (U2OS [25]): 72%; IC50 [27]: 10 nM; inhibition (U2OS [30]): Active |
| COc1cc(C2Oc3ccc([C@H]4Oc5cc(O)cc(O)c5C(=O)[C@@H]4O)cc3OC2CO)ccc1O (some centres undefined) |  |  |  | Non-Toxic | > 90 | > 90 | Non-Toxic | > 90 |  | > 90 |  | Non-Toxic | Active | > 50 | 250 | > 50 | Active | > 90 | > 90 | > 90 | inhibition (U2OS [33]): Active; TGI (U2OS [34]): 60%; Survival (U2OS [35]): 43 days; inhibition (U2OS [36]): Active |
| COc1ccc(-c2cc(=O)c3c(OC)c(OC)c(OC)cc3o2)cc1OC |  | > 50 | > 50 |  |  |  |  |  | > 50 |  | > 50 |  |  |  |  | > 50 |  |  |  |  |  |
| CNC(=O)[C@@H](NC(=O)[C@H](CC(C)C)[C@H](O)C(=O)NO)C(C)(C)C | Active |  |  |  |  |  |  |  |  |  |  |  |  |  |  |  |  |  |  |  |  |
